This note sets out measurements from article PMC6370799, “Flavones hydroxylated at 5, 7, 3′ and 4′ ameliorate skin fibrosis via inhibiting activin receptor-like kinase 5 kinase activity” (Cell Death & Disease, 2019).

In this experiment the target is T1, activin receptor-like kinase 5 (ALK5) (Homo sapiens, UniProt P36897).
T1 construct: gene TGFBR1; GST-ALK5
T1 sequence (P36897 34-503): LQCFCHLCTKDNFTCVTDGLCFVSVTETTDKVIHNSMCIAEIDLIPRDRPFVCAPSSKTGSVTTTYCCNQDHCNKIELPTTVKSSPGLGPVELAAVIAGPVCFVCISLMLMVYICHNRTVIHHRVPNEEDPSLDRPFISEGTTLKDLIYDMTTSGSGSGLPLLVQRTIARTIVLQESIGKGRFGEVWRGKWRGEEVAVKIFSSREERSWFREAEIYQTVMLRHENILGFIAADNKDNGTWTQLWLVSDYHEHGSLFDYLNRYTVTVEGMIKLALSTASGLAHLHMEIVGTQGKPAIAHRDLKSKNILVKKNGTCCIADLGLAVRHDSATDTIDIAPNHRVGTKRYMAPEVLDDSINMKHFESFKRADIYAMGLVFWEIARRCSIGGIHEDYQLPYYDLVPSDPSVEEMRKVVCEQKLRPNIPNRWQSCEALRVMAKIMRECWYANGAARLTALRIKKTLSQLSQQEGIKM
Put plainly: LanthaScreen Eu kinase binding assay (TR-FRET tracer displacement); also in vitro GST-Smad3 phosphorylation assay.
The IC50 is the point on the concentration scale where inhibition reaches its midpoint. Lower therefore signals inhibition by little substance. With `O=c1cc(-c2ccc(O)c(O)c2)oc2cc(O)cc(O)c12` [luteolin], the IC50 came out at 1060 nM.
`O=c1c(O)c(-c2cc(O)c(O)c(O)c2)oc2cc(O)cc(O)c12` [myricetin] returned an IC50 of 4080 nM. This IC50 lies about 3.8-fold higher than the previous one.
`O=c1c(O)c(-c2ccc(O)c(O)c2)oc2cc(O)cc(O)c12` [quercetin]: the IC50 turned out to be 1480 nM.
